# Experiments:
# Format in all cases: in vivo
# Setaria faberi [1] = assay: Post-emergence herbicidal activity, glasshouse pot test; design: key: 0 = no damage to plant, 5 = total damage to plant; settings: Application post-emergence, rate 1000 g/ha, evaluated after 13 days
# Method in brief: (§1)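 Test solution: technical active ingredient in acetone/water (50:50) containing 0.5% Tween 20, applied as an aqueous spray to 8-day-old plants. Evaluation at 13 days, 0–5 damage scale.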
# Amaranthus retroflexus [2] = assay: as above; design: key: 0 = no damage to plant, 5 = total damage to plant; settings: Application post-emergence, rate 1000 g/ha, evaluated after 13 days
# Method in brief: as §1
# Alopecurus myosuroides [3] = assay: as above; design: key: 0 = no damage to plant, 5 = total damage to plant; settings: Application post-emergence, rate 1000 g/ha, evaluated after 13 days
# Method in brief: as §1
# zea mays [4] = assay: as above; design: key: 0 = no damage to plant, 5 = total damage to plant; settings: Application post-emergence, rate 1000 g/ha, evaluated after 13 days
# Method in brief: as §1
# Echinochloa crus-galli [5] = assay: as above; design: key: 0 = no damage to plant, 5 = total damage to plant; settings: Application post-emergence, rate 1000 g/ha, evaluated after 13 days
# Method in brief: as §1
# Abutilon theophrasti [6] = assay: as above; design: key: 0 = no damage to plant, 5 = total damage to plant; settings: Application post-emergence, rate 1000 g/ha, evaluated after 13 days
# Method in brief: as §1
# Setaria faberi [7] = assay: Pre-emergence herbicidal activity, glasshouse pot test; settings: pre-emergence spray, rate 1000 g/ha, evaluated after 13 days, scale 0-5
# Method in brief: (§2)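 Test species were sown in pots and, after one day under controlled glasshouse conditions, treated with an aqueous spray of the active ingredient in acetone/water containing 0.5% Tween 20. Evaluation followed 13 days later, scoring plant damage from 0 (none) to 5 (total).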
# Amaranthus retroflexus [8] = assay: as above; settings: pre-emergence spray, rate 1000 g/ha, evaluated after 13 days, scale 0-5
# Method in brief: as §2
# Alopecurus myosuroides [9] = assay: as above; settings: pre-emergence spray, rate 1000 g/ha, evaluated after 13 days, scale 0-5
# Method in brief: as §2
# zea mays [10] = assay: as above; settings: pre-emergence spray, rate 1000 g/ha, evaluated after 13 days, scale 0-5
# Method in brief: as §2
# Echinochloa crus-galli [11] = assay: as above; settings: pre-emergence spray, rate 1000 g/ha, evaluated after 13 days, scale 0-5
# Method in brief: as §2
# Abutilon theophrasti [12] = assay: as above; settings: pre-emergence spray, rate 1000 g/ha, evaluated after 13 days, scale 0-5
# Method in brief: as §2
SMILES,SETFA herbicidal damage score (Setaria faberi [1]),AMARE herbicidal damage score (Amaranthus retroflexus [2]),ALOMY herbicidal damage score (Alopecurus myosuroides [3]),ZEAMX herbicidal damage score (zea mays [4]),ECHCG herbicidal damage score (Echinochloa crus-galli [5]),ABUTH herbicidal damage score (Abutilon theophrasti [6]),"SETFA damage score, application pre-emergence (Setaria faberi [7])","AMARE damage score, application pre-emergence (Amaranthus retroflexus [8])","ALOMY damage score, application pre-emergence (Alopecurus myosuroides [9])","ZEAMX damage score, application pre-emergence (zea mays [10])","ECHCG damage score, application pre-emergence (Echinochloa crus-galli [11])","ABUTH damage score, application pre-emergence (Abutilon theophrasti [12])"
COC1=C(C)C(O)N(c2cc(C(F)(F)F)c(C(=O)N(C)OC)cn2)C1=O (stereo not drawn) [AI12],5,5,5,5,5,5,4,5,4,4,4,5
COC1=C(C)C(O)N(c2cc(C(F)(F)F)c(-c3cncnc3)cn2)C1=O (stereo not drawn) [AI13],5,5,5,4,5,5,2,4,3,3,3,2
COC1=C(C)C(O)N(c2cc(C(F)(F)F)c(-c3cnc(OC)nc3)cn2)C1=O (stereo not drawn) [AI14],5,5,4,3,5,5,3,5,2,1,2,1
COC1=C(C)C(O)N(c2cc(C(F)(F)F)c(OC)cn2)C1=O (stereo not drawn) [AI15],5,5,5,4,5,5,5,5,4,3,4,2
COC1=C(C)C(O)N(c2cc(C(F)(F)Cl)ccn2)C1=O (stereo not drawn) [AI16],5,5,4,3,5,5,5,5,3,2,5,1
COC1=C(C)C(O)N(c2cc(C(C)F)ccn2)C1=O (stereo not drawn) [AI17],5,5,5,3,5,5,5,5,4,4,5,5
CCOC(=O)c1cnc(N2C(=O)C(OC)=C(C)C2O)cc1Cl (stereo not drawn) [AI19],5,5,1,1,3,4,1,2,1,0,2,0
CCc1cc(N2C(=O)C(OC)=C(C)C2O)ncc1Br (stereo not drawn) [AI22],5,5,4,1,5,4,2,5,3,1,4,1
COC1=C(C)C(O)N(c2cc(F)ccn2)C1=O (stereo not drawn) [AI23],5,5,5,3,5,5,4,5,3,1,5,1
COC1=C(C)C(O)N(c2ccc(C(=O)NC(C)(C)C)cn2)C1=O (stereo not drawn) [AI24],5,5,4,4,5,4,4,5,3,1,4,4
COC1=C(C)C(O)N(c2ccc(C(=O)NC(C)(C)C#N)cn2)C1=O (stereo not drawn) [AI25],5,5,5,3,5,5,4,5,4,2,3,4
COC1=C(C)C(O)N(c2ccc(NC(=O)C(C)(C)C)cn2)C1=O (stereo not drawn) [AI26],5,5,5,5,5,5,5,5,4,2,5,5

# Reference: patent publication US9963445B2, “Chemical compounds” (SYNGENTA PARTICIPATIONS AG, priority 2013, dated 2018)
